Assay [1] has as its system incident CPDs (iCPDs) in NBHF cells. Briefly: iCPD assessment by DNA ELISA after ssUV, NBHF. The note with it: 50 µg/mL, 24 h preincubation, 18 kJ/m^2 ssUV, Figure 3B. Format: cell-based, human. From the text:
(§1) For UV exposures, we used a “SOL-UV6 ultraviolet solar simulator” from Newport irradiators. It is equipped with a Xenon arc lamp where the output is varied using the integrated variable attenuator aperture, which provides the ability to vary the output from 10% to 100% of the maximum available solar constants. The output spectrum is flat from 320 nm to 400 nm and no values are below 300 nm. This is abbreviated as “ssUV” for “solar-simulated UV” throughout the text. Various cell types seeded at ~50% confluency, were treated with the AZ and analogs at concentrations mentioned in the data figures for 24–h. Cells at ~80–90% confluency (untreated controls), were washed twice with PBS and exposed to 18 kJ/m^2 of ssUV in minimal amount of PBS (ex. 2 mL PBS in a 60 mm cell culture dish) without any dish lid in place. […] The ssUV apparatus was monitored almost daily using UV meters for any emissions below 300 nm. The dose was decided based upon the 80–90% cell survival post UV exposure. After exposure, one time point was collected immediately to assess iCPDs, whereas more dishes were incubated in cell culture medium, inside the cell culture incubator, for various time points to be collected post UV to assess dCPDs. For dCPD induction, it is important that the cell culture incubator is not opened for at least 30 min (the first time point post UV) to avoid possible interference from the CO2/O2 ratio, which will be altered upon opening the incubator doors. Cells were collected by scraping and washed once with PBS, which was followed by DNA isolation using a Quick DNA miniprep Kit (Cat. D3024, Zymo Research, Irvine, CA, USA). CPDs were assessed using our previously established DNA ELISA protocols. In brief, ELISA was performed using mouse monoclonal Anti-CPD (Cat. CAC-NM-DND-001, Clone TDM-2, CosmoBio, Inc., Carlsbad, CA, USA). Flat-bottom, 96-well plates (Cat. 2801, Thermo Scientific, Waltham, MA, USA) were coated overnight with 50 µL of protamine sulphate (0.005–0.05%, Cat. P3369, Sigma, St. Lois, MO, USA) in distilled water. After washing twice with water, heat-denatured DNA was plated in triplicates from each sample, into the protamine sulphate coated plate wells (50–100 ng/well in 50 µL PBS) and incubated overnight at 37 °C. The plates were washed 5 times with 200 µL of PBST (PBS containing 0.05% Tween-20 Cat. P7949, Sigma), and blocked with 2–4% FBS in PBST (blocking buffer) for 1 h at room temperature (RT). The plates were incubated with 100 µL of a 1:1000 dilution of anti-CPD antibody in blocking buffer, and incubated for 30 min at 37 °C, which was followed by 5 washes in PBST. Next, the plates were incubated with 100 µL of a 1:2000 dilution of Biotin-F(ab’)2 fragment of anti-mouse IgG(H+L) (Cat. B-2763, Life Technologies) in blocking buffer for 30 min at 37 °C. Detection was conducted using 100 µL of a 1:10,000 dilution of Streptavidin HRP (Cat. 434323, Life Technologies) in 2% FBS for 30 min at 37 °C, which was followed by 5 washes. The plates were washed once with citrate phosphate buffer (24.3 mM citric acid monohydrate, J.T. Baker Cat. 0110-01- and 51.4-mM sodium phosphate dibasic, Sigma Cat. S7907, pH 5.0). The o-phenylene diamine dihydrochloride (Cat. P8287-50TAB, Sigma) was used as a HRP substrate at 400 µg/mL in citrate phosphate buffer for 5–10 min. A measure of 50 µL of 2M H2SO4 was used to stop the reaction as soon as the color developed (5–10 min incubation in substrate), and OD was measured at 490 nm using a Synergy-2 multimode microplate reader (BioTek, Winooski, VT, USA).
A general note: In an ELISA, binding on a coated surface is turned into a signal by an enzyme label.

Assay [2] concerns incident CPDs (iCPDs) in HaCaT cells. In words: iCPD assessment by DNA ELISA after ssUV, HaCaT. It is filed as cell-based, human. The note with it: various doses, Supplementary Figure S2A. From the text:
(§2) For UV exposures, we used a “SOL-UV6 ultraviolet solar simulator” from Newport irradiators. It is equipped with a Xenon arc lamp where the output is varied using the integrated variable attenuator aperture, which provides the ability to vary the output from 10% to 100% of the maximum available solar constants. The output spectrum is flat from 320 nm to 400 nm and no values are below 300 nm. This is abbreviated as “ssUV” for “solar-simulated UV” throughout the text. Various cell types seeded at ~50% confluency, were treated with the AZ and analogs at concentrations mentioned in the data figures for 24–h. Cells at ~80–90% confluency (untreated controls), were washed twice with PBS and exposed to 18 kJ/m^2 of ssUV in minimal amount of PBS (ex. 2 mL PBS in a 60 mm cell culture dish) without any dish lid in place. […] The ssUV apparatus was monitored almost daily using UV meters for any emissions below 300 nm. The dose was decided based upon the 80–90% cell survival post UV exposure. After exposure, one time point was collected immediately to assess iCPDs, whereas more dishes were incubated in cell culture medium, inside the cell culture incubator, for various time points to be collected post UV to assess dCPDs. For dCPD induction, it is important that the cell culture incubator is not opened for at least 30 min (the first time point post UV) to avoid possible interference from the CO2/O2 ratio, which will be altered upon opening the incubator doors. Cells were collected by scraping and washed once with PBS, which was followed by DNA isolation using a Quick DNA miniprep Kit (Cat. D3024, Zymo Research, Irvine, CA, USA). CPDs were assessed using our previously established DNA ELISA protocols. In brief, ELISA was performed using mouse monoclonal Anti-CPD (Cat. CAC-NM-DND-001, Clone TDM-2, CosmoBio, Inc., Carlsbad, CA, USA). […] A measure of 50 µL of 2M H2SO4 was used to stop the reaction as soon as the color developed (5–10 min incubation in substrate), and OD was measured at 490 nm using a Synergy-2 multimode microplate reader (BioTek, Winooski, VT, USA).

For assay [3], the system named is incident CPDs (iCPDs) in pigmented C57BL/6 melanocytes (Mel-a). In words: iCPD assessment by DNA ELISA after ssUV, Mel-a. Format: cell-based, mouse. The note with it: various doses up to 1 mg/mL, 24 h, Figure 4A.
Excerpt: as §1

For assay [4], the system named is incident CPDs (iCPDs) in albino C57BL/6 melanocytes (Mel-c). Briefly: iCPD assessment by DNA ELISA after ssUV, Mel-c. Format: cell-based, mouse. As to conditions: various doses up to 1 mg/mL, 24 h, Figure 4B.
Excerpt: as §2

`COc1ccc(CC(C(C)=O)C(C)=O)cc1OC` [DMBPD, 3-(3,4-Dimethoxy-benzyl)-pentane-2,4-dione]: in assay [1], the “Inhibition of iCPD formation” value is reported as “inhibited iCPD formation to varying extents”.
As for `COc1ccc(CCC(C)=O)cc1` [RKME, 4-(4-Methoxyphenyl)-butan-2-one, reference compound], in assay [2], the “iCPD inhibition” value is recorded as “did not show any effect”. Moreover, the “iCPD inhibition across doses” value in assay [3] is “did not show any impact”; in assay [3] (listed as RMKE), “completely abrogated the ability of the molecule to prevent CPD formation”; in assay [4] it was “did not show any impact”.
Turning to `COc1cc(CC(C(C)=O)C(C)=O)cc(OC)c1OC` [TMBPD, 3-(3,4,5-trimethoxy-benzyl)-pentane-2,4-dione], in assay [1], the “Inhibition of iCPD formation” value was “inhibited iCPD formation to varying extents”.

For the origin of these results see paper PMC9952391, “The Role of Acetyl Zingerone and Its Derivatives in Inhibiting UV-Induced, Incident, and Delayed Cyclobutane Pyrimidine Dimers” (Antioxidants, 2023).
